Assay results from ChEMBL document CHEMBL5729264, “Bicyclic compounds” (2022).

test: Dual-Glo Luciferase Assay: The Dual-Glo Luciferase Reagent was prepared by transferring the contents of one bottle of Dual-Glo Luciferase Buffer to one bottle of Dual-Glo Luciferase Substrate to create the Dual-Glo Luciferase Reagent. Mixing was performed by inversion until the substrate was thoroughly dissolved. After mixing, the reagent was aliquoted into 15 ml tubes. In the afternoon (24 hrs post compound treatment), the DMEM+medium in the 384 well plates were aspirated by Microplate Washer.Measuring firefly luciferase activity: 20 ul Dual-Glo Luciferase Reagent was added to the 384-well plates. The plates were protected from light to prevent interference with the assay. The plates were shaken for 1 min followed centrifuging plates at 1000 rpm for 30 seconds. After waiting at least 10 minutes, the firefly luminescence was measured by Envision.Measuring renilla luciferase activity: 20 ul Stop-Glo Reagent was added to the 384-well plates. The plates were shaken for 1 min and then centrifuged at 1000 rpm for 30 seconds. After waiting at least 10 minutes, the renilla luminescence was measured by Envision.Compound IC50 and maximum inhibition on the firefly luciferase and renilla luciferase activities were reported separately.

| IC50 | Structure (SMILES) |
| --- | --- |
| < 100 nM | C[C@@H](NC(=O)c1ccc2c(Oc3ccc(C(F)(F)F)cc3)cccc2c1)c1c[nH]cn1 |
| < 100 nM | C[C@@H](NC(=O)c1ccc2c(Oc3ccc(C(F)(F)F)cc3)cccc2c1)c1cccc(N)n1 |
| < 100 nM | O=C(NC(CO)c1ccccn1)c1cnc2c(Oc3ccc(C(F)(F)F)cc3)cccc2c1 (centres undefined) |
| < 100 nM | O=C(N[C@@H](CCO)c1ccccn1)c1ccc2c(Oc3ccc(C(F)(F)F)cc3)cccc2c1 |
| < 100 nM | O=C(NC(CCO)c1ccccn1)c1ccc2c(Oc3ccc(C(F)(F)F)cc3)cccc2c1 (centres undefined) |
| < 100 nM | C[C@@H](CCN)NC(=O)c1ccc2c(Oc3ccc(C(F)(F)F)cc3)cccc2c1 |
| < 100 nM | C[C@@H](NC(=O)c1ccc2c(Oc3ccc(C(F)(F)F)cc3)cccc2c1)C(N)=O |
| in the range around 550 nM | C[C@H](NC(=O)c1ccc2c(Oc3ccc(C(F)(F)F)cc3)cccc2c1)c1cnccn1 |
| in the range around 550 nM | C[C@@H](NC(=O)c1ccc2c(Oc3ccc(C(F)(F)F)cc3)cccc2c1)c1nccn1C |
| < 100 nM | C[C@H](NC(=O)c1cc2cccc(Oc3ccc(C(F)(F)F)cc3)c2s1)c1ccccn1 |
| < 100 nM | C[C@@H](NC(=O)c1ccc2c(Oc3ccc(C(F)(F)F)cc3)cccc2c1)c1cc(N)ccn1 |
| < 100 nM | C[C@@H](NC(=O)c1ccc2c(Oc3ccc(C(F)(F)F)cc3)cccc2c1)c1cccc2cn[nH]c12 |
| in the range around 550 nM | C[C@H](NC(=O)c1ccc2c(Oc3ccc(C(F)(F)F)cc3)cccc2c1)c1cc(N)ccn1 |
| in the range around 550 nM | C[C@H](NC(=O)c1ccc2c(Oc3ccc(C(F)(F)F)cc3)cccc2c1)c1cccc(N)n1 |
| in the range around 550 nM | O=C(N[C@@H](CO)c1ccccn1)c1ccc2c(Oc3ccc(C(F)(F)F)cc3)cccc2c1 |
| < 100 nM | O=C(NC1(c2ccccn2)CC1)c1ccc2c(Oc3ccc(C(F)(F)F)cc3)cccc2c1 |
| < 100 nM | O=C(NC1(c2ccccc2)CC1)c1ccc2c(Oc3ccc(C(F)(F)F)cc3)cccc2c1 |
| < 100 nM | C[C@H](NC(=O)c1ccc2c(Oc3ccc(C(F)(F)F)cc3)cccc2c1)c1cccnc1N |
| < 100 nM | N#CCNC(=O)c1ccc2c(Oc3ccc(C(F)(F)F)cc3)cccc2c1 |
| < 100 nM | C#CCNC(=O)c1ccc2c(Oc3ccc(C(F)(F)F)cc3)cccc2c1 |
| < 100 nM | C#C[C@H](C)NC(=O)c1ccc2c(Oc3ccc(C(F)(F)F)cc3)cccc2c1 |
| < 100 nM | COC[C@@H](C)NC(=O)c1ccc2c(Oc3ccc(C(F)(F)F)cc3)cccc2c1 |
| < 100 nM | C[C@@H](NC(=O)c1ccc2c(Oc3ccc(C(F)(F)F)cc3)cccc2c1)c1cn(C)cn1 |
| in the range around 2000 nM | C[C@@H](NC(=O)c1ccc2c(Oc3ccc(C(F)(F)F)cc3)cccc2c1)c1cccnc1N |
| < 100 nM | C[C@H](NC(=O)c1ccc2c(Oc3ccc(C(F)(F)F)cc3)cccc2c1)c1ccccn1 |
| < 100 nM | CC(NC(=O)c1ccc2c(Oc3ccc(C(F)(F)F)cc3)cccc2c1)c1cc(Br)ccn1 (centres undefined) |
| < 100 nM | C[C@@H](NC(=O)c1ccc2c(Oc3ccc(C(F)(F)F)cc3)cccc2c1)c1ncc[nH]1 |
| in the range around 550 nM | C[C@H](NC(=O)c1ccc2c(Oc3ccc(C(F)(F)F)cc3)cccc2c1)c1cn(C)cn1 |
| in the range around 550 nM | C[C@H](NC(=O)c1ccc2c(Oc3ccc(C(F)(F)F)cc3)cccc2c1)C1(O)CNC1 |

More lines, now with the values behind:

| Structure (SMILES) | IC50 |
| --- | --- |
| C[C@@H](NC(=O)c1ccc2c(Oc3ccc(C(F)(F)F)cc3)cccc2c1)C1CCN(CC(F)F)CC1 | in the range around 550 nM |
| CC(C)NC(=O)c1ccc2c(Oc3ccc(C(F)(F)F)cc3)nccc2c1 | < 100 nM |
| CS(=O)(=O)NC(=O)c1ccc2c(Oc3ccc(Cl)c(Cl)c3)cccc2c1 | < 100 nM |
| CC(C)N1CC([C@H](C)NC(=O)c2ccc3c(Oc4ccc(C(F)(F)F)cc4)cccc3c2)C1 | in the range around 550 nM |
| CS(=O)(=O)NC(=O)c1ccc2c(Oc3ccc(C(F)(F)F)cc3)cccc2c1 | < 100 nM |
| C[C@H](NC(=O)c1ccc2c(Oc3ccc(C(F)(F)F)cc3)cccc2c1)C1COC1 | < 100 nM |
| COC[C@H](C)NC(=O)c1cnc2c(Oc3ccc(C(F)(F)F)cc3)cccc2c1 | < 100 nM |
| CC(C)NC(=O)c1ccc2c(Oc3ccc(C(F)(F)F)cc3)cncc2c1 | < 100 nM |
| CC(C)NC(=O)c1cnc2c(Oc3ccc(C(F)(F)F)cc3)cccc2c1 | < 100 nM |
| C[C@H](NC(=O)c1ccc2c(Oc3ccc(C(F)(F)F)cc3)cccc2c1)C1CN(CCF)C1 | in the range around 2000 nM |
| C[C@H](CO)NC(=O)c1cnc2c(Oc3ccc(C(F)(F)F)cc3)cc(F)c(F)c2c1 | < 100 nM |
| C[C@H](CCNCCF)NC(=O)c1ccc2c(Oc3ccc(C(F)(F)F)cc3)cccc2c1 | < 100 nM |
| CCN1CC([C@H](C)NC(=O)c2ccc3c(Oc4ccc(C(F)(F)F)cc4)cccc3c2)C1 | in the range around 550 nM |
| C[C@@H](NC(=O)c1ccc2c(Oc3ccc(C(F)(F)F)cc3)cccc2c1)C1CCC1 | < 100 nM |
| COC[C@@H](C)NC(=O)c1cnc2c(Oc3ccc(C(F)(F)F)cc3)cc(OC)cc2c1 | < 100 nM |
| C[C@@H](NC(=O)c1ccc2c(Oc3ccc(C(F)(F)F)cc3)cccc2c1)C1(F)CNC1 | in the range around 550 nM |
| CC(C)NC(=O)c1ccc2c(Oc3cccc(Cl)c3)cccc2c1 | < 100 nM |
| C[C@H](NC(=O)c1ccc2c(Oc3ccc(C(F)(F)F)cc3)cccc2c1)C1CN(C)C1 | in the range around 2000 nM |

| Structure (SMILES) | IC50 |
| --- | --- |
| COc1cc(Oc2ccc(C(F)(F)F)cc2)c2ncc(C(=O)N[C@@H](C)c3ccccn3)cc2c1 | < 100 nM |
| C[C@H](CO)NC(=O)c1cc2cccc(Oc3ccc(C(F)(F)F)cc3)c2s1 | < 100 nM |
| C[C@@H](NC(=O)c1ccc2c(Oc3ccc(C(F)(F)F)cc3)cccc2c1)C1CN(CCO)C1 | in the range around 550 nM |
| N#CCCNC(=O)c1ccc2c(Oc3ccc(C(F)(F)F)cc3)cccc2c1 | < 100 nM |
| C[C@@H](NC(=O)c1cnc2c(Oc3ccc(C(F)(F)F)cc3)cccc2c1)c1cccc2nc[nH]c12 | in the range around 550 nM |
| C[C@H](NC(=O)c1ccc2c(Oc3ccc(C(F)(F)F)cc3)cccc2c1)C1CN(CC(F)F)C1 | in the range around 2000 nM |
| C[C@@H](NC(=O)c1ccc2c(Oc3ccc(C(F)(F)F)cc3)cccc2c1)c1nnn(C)n1 | in the range around 550 nM |
| CCN1CC([C@@H](C)NC(=O)c2ccc3c(Oc4ccc(C(F)(F)F)cc4)cccc3c2)C1 | in the range around 550 nM |
| C[C@@H](NC(=O)c1ccc2c(Oc3ccc(C(F)(F)F)cc3)cccc2c1)C1CN(C)C1 | in the range around 550 nM |
| C[C@@H](NC(=O)c1ccc2c(Oc3ccc(C(F)(F)F)cc3)cccc2c1)C1CN(C2CC2)C1 | < 100 nM |
| CC(C)NC(=O)c1cnc2c(Oc3ccc(C(F)(F)F)cc3)cc(F)c(F)c2c1 | < 100 nM |
| C[C@@H](NC(=O)c1ccc2c(Oc3ccc(C(F)(F)F)cc3)cccc2c1)C1CCN(C)CC1 | < 100 nM |
| CC(C)NC(=O)c1ccc2c(Oc3ccc(F)c(F)c3)cccc2c1 | < 100 nM |
| C[C@@H](NC(=O)c1ccc2c(Oc3ccc(C(F)(F)F)cc3)cccc2c1)C1CN(CCCCO)C1 | in the range around 550 nM |
| CC(=O)N1CC([C@H](C)NC(=O)c2ccc3c(Oc4ccc(C(F)(F)F)cc4)cccc3c2)C1 | in the range around 550 nM |
| C[C@H](NC(=O)c1ccc2c(Oc3ccc(C(F)(F)F)cc3)cccc2c1)C1CNC1 | < 100 nM |
| COc1cc(Oc2ccc(C(F)(F)F)cc2)c2ncc(C(=O)NC(C)C)cc2c1 | < 100 nM |
